# Like-named read-outs stand apart in the source and are kept apart here.
# Key:
# Type in all cases: cell-based
# [1] = molecular target: glutamate-activated channels of the GRIN1/2A subtype stably transfected in HEK 293 cells (Homo sapiens (Human), UniProt Q05586+Q12879); experiment: Automated patch-clamp system (QPatch HTX), percent potentiation at 1 μM; details: HEK293, 1 μM test compound, 300 μM NMDA with 8 μM glycine, HEK 293 GRIN1/2A, read-out: GluN2A PCA % potentiation at 1 μM
# Description: (§1) NMDA potentiation in mammalian cells which expressed NMDA receptors was assessed using the automatic patch-clamp system can be used determine the NAM activity of compounds as described below. An whole cell patch-clamp system can be used determine the PAM activity of compounds as described below.
# Automated Patch-Clamp System (OPatch HTX):
# In this study, HEK 293 cells stably transfected with glutamate-activated channels of the GRIN1/2A subtype will be used together with submaximal NMDA concentrations (300 μM NMDA, co-application with 8 μM Glycine) to investigate the negative allosteric modulation of the test compounds.
# In general, cells will be passaged at a confluence of about 80% to […]. For electrophysiological measurements cells will be harvested at a confluence of about 80% to 90% from sterile culture flasks containing culture complete medium. Cells will be transferred as suspension in PBS to the QPatch 16X or QPatch HTX system to the centrifuge/washer directly.
# Standard Laboratory Conditions: Cells will be incubated at 37° C. in a humidified atmosphere with 5% CO2 (rel. humidity about 95%).
# Culture media: The cells will be continuously maintained in and passaged in sterile culture flasks containing a 1:1 mixture of Dulbecco's modified eagle medium and nutrient mixture F-12 (D-MEM/F-12 1×, liquid, with L-Glutamine) supplemented with 10% fetal bovine serum, 1% Penicillin/Streptomycin solution, and 50 μM AP-5 blocker.
# Antibiotics: The complete medium as indicated above is supplemented with 100 μg/mL hygromycin, 15 μg/mL blasticidin and 1 μg/mL puromycin.
# Induction of Expression: 2.5 μg/mL tetracycline is added 24 h before start of experiments.
# Dose levels are in terms of test compounds, as supplied. Vehicle will be added to achieve a stock concentration of 10 mM (storage at −10° C. to −30° C.). A further stock solutions of 1.0 mM will be prepared in DMSO. Details of stock solution usage (thawing, dose formulations) will be documented in the raw data. The time period of stock solution usage will be detailed in the report.
# Test Compound Concentrations
# One test concentration of 1.0 μM will be tested.
# All test solutions will be prepared by diluting the stock solutions with either Mg-free bath solution only or Mg-free bath solution containing NMDA (300 μM) and glycine (8.0 μM) shortly prior to the electrophysiological experiments and kept at room temperature (19° C. to 30° C.) when in use. 0.1% DMSO will be used as vehicle.
# Frequency of preparation: For each test concentration, fresh solutions of test compounds will be prepared every day.
# Stability of dose formulation: All preparation times will be documented in the raw data. Any observations regarding instability of test compounds will be mentioned in the raw data.
# Storage of dose formulation: On the day of experimentation dose formulations will be maintained at room temperature (19° C. to 30° C.) when in use.
# For preparing the experiments and for formation of the giga-ohm-seal, the following standard bath solution will be used:
# Sodium Chloride: 137 mM; Potassium Chloride: 4 mM; Calcium Chloride: 1.8 mM; Magnesium Chloride: 1 mM; HEPES: 10 mM; D-Glucose: 10 mM; Cremophor: 0.02%; pH (NaOH): 7.4
# The 1× bath solution will be prepared by diluting 10× bath solution without Glucose and 100× Glucose solution with water at least every 7 days. Both stock solutions have been prepared prior to the experimental start of the present study and stored at 1° C. to 9° C. (10× bath solution) or −10° C. to −30° (100× Glucose solution). The batch number(s) of the bath solution(s) used in the experiments will be documented in the raw data. When in use, the 1× bath solution will be kept at room temperature (19° C. to 30° C.). When not in use, the 1× bath solution will be stored at 1° C. to 9° C.
# After the giga-seal was formed the following Mg-free bath solution will be used:
# Sodium Chloride: 137 mM; Potassium Chloride: 4 mM; Calcium Chloride; 2.8 mM; HEPES: 10 mM; D-Glucose: 10 mM; Cremophor: 0.02%; pH (NaOH): 7.4 […]
# [2] = molecular target: GluN2B glutamate receptors expressed in mammalian cells (Homo sapiens (Human), UniProt Q05586+Q13224); experiment: Whole-cell patch clamp of mammalian cells (Ionworks Barracuda), positive allosteric modulation, GluN2B; details: for Emax: read-out: GluN2B PCA EMax (%)
# Chain of GluN2B glutamate receptors expressed in mammalian cells (Q13224 27-1484, other chains not shown): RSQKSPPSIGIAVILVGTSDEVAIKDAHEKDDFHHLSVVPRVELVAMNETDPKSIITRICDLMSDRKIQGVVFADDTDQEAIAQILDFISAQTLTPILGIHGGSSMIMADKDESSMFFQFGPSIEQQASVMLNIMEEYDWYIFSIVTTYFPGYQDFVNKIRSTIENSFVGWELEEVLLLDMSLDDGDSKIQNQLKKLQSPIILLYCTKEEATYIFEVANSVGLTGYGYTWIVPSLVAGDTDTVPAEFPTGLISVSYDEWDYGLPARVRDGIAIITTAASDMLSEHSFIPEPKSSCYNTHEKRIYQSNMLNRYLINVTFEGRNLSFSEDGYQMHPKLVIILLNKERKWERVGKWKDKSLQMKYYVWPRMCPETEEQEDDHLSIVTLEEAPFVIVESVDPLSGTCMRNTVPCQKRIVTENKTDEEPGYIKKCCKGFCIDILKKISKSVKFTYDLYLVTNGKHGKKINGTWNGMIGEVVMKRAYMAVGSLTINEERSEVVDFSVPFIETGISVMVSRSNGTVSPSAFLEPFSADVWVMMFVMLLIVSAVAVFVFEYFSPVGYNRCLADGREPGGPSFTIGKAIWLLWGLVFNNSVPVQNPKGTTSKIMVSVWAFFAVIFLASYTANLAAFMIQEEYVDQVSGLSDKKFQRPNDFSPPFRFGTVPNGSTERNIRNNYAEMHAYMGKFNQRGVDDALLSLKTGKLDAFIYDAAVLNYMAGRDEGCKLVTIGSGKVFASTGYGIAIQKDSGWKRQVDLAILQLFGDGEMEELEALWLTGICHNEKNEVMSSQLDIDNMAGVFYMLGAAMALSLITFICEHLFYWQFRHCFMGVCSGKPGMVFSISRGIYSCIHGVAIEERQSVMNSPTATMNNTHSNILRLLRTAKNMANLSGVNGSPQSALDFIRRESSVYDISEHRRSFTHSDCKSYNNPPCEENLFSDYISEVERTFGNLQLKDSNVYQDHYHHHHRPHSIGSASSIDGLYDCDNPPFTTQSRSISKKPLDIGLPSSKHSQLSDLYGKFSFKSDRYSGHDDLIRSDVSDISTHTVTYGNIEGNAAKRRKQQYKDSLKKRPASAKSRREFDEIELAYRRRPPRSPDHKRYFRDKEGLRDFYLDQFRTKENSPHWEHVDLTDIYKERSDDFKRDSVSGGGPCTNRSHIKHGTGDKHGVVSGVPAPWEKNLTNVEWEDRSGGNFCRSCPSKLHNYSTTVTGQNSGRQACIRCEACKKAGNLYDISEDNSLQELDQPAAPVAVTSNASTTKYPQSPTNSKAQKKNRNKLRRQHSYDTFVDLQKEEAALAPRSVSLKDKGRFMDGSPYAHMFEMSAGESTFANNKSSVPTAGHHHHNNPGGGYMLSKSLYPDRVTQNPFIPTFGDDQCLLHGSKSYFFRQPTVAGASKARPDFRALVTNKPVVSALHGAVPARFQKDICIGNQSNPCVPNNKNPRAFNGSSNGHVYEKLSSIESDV
# Description: as §1
# (§2) The measurements were performed using Ion Works Barracuda platform following this procedure:
# (§3) Electrophysiological Procedures: • a) Intracellular solution (mM): 50 mM CsCl, 90 mM CsF, 2 mM MgCl2, 5 mM EGTA, 10 mM HEPES. Adjust to pH 7.2 with CsOH. • b) Extracellular solution, HB-PS (composition in mM): NaCl, 137; KCl, 1.0; CaCl2, 5; HEPES, 10; Glucose, 10; pH adjusted to 7.4 with NaOH (refrigerated until use). • c) Holding potential: −70 mV, potential during agonist/PAM application: −40 mV.
# (§4) Recording Procedure: • a) Extracellular buffer will be loaded into the PPC plate wells (11 μL per well). Cell suspension will be pipetted into the wells (9 μL per well) of the PPC planar electrode. • b) Whole-cell recording configuration will be established via patch perforation with membrane currents recorded by on-board patch clamp amplifiers. • c) Two recordings (scans) will be performed. First, during pre-application of test article alone (duration of pre-application—5 min) and second, during test articles and agonist (EC20 L-glutamate and 30 μM glycine) co-application to detect positive modulatory effects of the test article.
# (§5) Test Article Administration: The first pre-application will consist of the addition of 20 μL of 2× concentrated test article solution and, second, of 20 μL of 1× concentrated test article and agonist at 10 μL/s (2 second total application time).
# (§6) Potentiating Effect of Positive Allosteric Modulators (PAM) on the Channel
# (§7) The maximal amplitude of the evoked currents are measured and defined as Peak Current Amplitude (PCA).
# [3] = molecular target: GluN1/GluN2A glutamate receptors (human GRIN1/GRIN2A) expressed in HEK293 cells (Homo sapiens (Human), UniProt Q05586+Q12879); experiment: Whole-cell patch clamp of mammalian cells (Ionworks Barracuda), positive allosteric modulation, GluN1/GluN2A; details: for Emax: read-out: GluN2A PCA EMax (%)
# Chain of GluN1/GluN2A glutamate receptors (human GRIN1/GRIN2A) expressed in HEK293 cells (Q12879 whole entry, looked up, other chains not shown): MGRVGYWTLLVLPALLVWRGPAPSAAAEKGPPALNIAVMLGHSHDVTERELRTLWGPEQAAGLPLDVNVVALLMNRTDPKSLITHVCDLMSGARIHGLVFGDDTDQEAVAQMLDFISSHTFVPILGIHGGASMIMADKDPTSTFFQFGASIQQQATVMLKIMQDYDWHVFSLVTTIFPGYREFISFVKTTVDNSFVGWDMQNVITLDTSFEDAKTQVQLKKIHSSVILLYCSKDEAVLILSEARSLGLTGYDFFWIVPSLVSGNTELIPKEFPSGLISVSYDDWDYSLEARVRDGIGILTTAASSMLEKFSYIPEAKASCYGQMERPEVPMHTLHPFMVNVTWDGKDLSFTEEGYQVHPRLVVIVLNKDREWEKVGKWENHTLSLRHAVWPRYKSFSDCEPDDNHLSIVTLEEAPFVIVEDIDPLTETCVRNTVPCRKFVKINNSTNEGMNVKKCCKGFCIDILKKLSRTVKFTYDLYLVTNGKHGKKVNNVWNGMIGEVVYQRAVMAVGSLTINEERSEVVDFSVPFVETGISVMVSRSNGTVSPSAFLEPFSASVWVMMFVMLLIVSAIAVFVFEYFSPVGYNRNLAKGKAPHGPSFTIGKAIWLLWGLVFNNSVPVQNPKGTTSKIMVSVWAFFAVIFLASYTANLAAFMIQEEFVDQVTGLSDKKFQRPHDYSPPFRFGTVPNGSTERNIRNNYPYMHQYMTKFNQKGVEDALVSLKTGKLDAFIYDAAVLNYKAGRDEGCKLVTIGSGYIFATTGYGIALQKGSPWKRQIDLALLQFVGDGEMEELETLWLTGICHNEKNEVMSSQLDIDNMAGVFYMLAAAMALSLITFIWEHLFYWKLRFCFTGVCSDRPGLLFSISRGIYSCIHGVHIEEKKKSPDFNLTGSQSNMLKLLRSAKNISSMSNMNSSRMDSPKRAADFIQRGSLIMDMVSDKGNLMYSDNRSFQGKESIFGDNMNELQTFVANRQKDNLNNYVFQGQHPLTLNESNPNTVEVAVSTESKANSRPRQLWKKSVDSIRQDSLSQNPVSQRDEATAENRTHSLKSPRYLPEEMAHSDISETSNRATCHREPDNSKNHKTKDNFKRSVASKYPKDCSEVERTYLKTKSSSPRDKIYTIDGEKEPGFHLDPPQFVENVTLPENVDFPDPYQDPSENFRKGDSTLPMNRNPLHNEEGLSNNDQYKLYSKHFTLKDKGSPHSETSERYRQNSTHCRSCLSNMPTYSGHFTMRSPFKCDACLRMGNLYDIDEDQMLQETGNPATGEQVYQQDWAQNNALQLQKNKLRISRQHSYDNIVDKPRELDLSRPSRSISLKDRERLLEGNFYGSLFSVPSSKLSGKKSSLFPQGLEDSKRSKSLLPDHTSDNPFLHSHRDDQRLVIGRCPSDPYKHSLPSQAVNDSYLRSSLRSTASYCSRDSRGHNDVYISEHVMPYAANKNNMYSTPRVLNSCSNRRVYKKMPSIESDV
# Description: as §1, §2, §3, §4, §5, §6, §7
# [4] = peak current amplitude, co-application with EC20 L-glutamate and 30 μM glycine, HEK293
# Chain of glutamate-activated channels of the GRIN1/2A subtype stably transfected in HEK 293 cells (Q12879 whole entry, looked up, other chains not shown): as above
SMILES,activation at 1 µM [1] [%],further results
"C[C@@H]([C@H]1CC[C@H]2[C@@H]3CC=C4C[C@](O)(C(F)(F)F)CC[C@]4(C)[C@H]3CC[C@]12C)[C@H](O)C(F)(F)F [Compound 1, (3S,8S,9S,10R,13S,14S,17R)-10,13-dimethyl-17-((2S,3S)-4,4,4-trifluoro-3-hydroxybutan-2-yl)-3-(trifluoromethyl)-2,3,4,7,8,9,10,11,12,13,14,15,16,17-tetradecahydro-1H-cyclopenta[a]phenanthren-3-ol]",-40 to -10,
"COC[C@]1(O)CC[C@@]2(C)[C@@H](CC[C@@H]3[C@@H]2CC[C@]2(C)[C@@H]([C@H](C)[C@H](O)CCC(C)C)CC[C@@H]32)C1 [Compound 2, (3S,5S,8R,9S,10S,13S,14S,17R)-17-((2S,3R)-3-hydroxy-6-methylheptan-2-yl)-3-(methoxymethyl)-10,13-dimethylhexadecahydro-1H-cyclopenta[a]phenanthren-3-ol]",< -40,
"CC[C@]1(O)CC[C@@]2(C)[C@@H](CC[C@@H]3[C@@H]2CC[C@]2(C)[C@@H]([C@H](C)[C@@H](O)c4cccnc4)CC[C@@H]32)C1 [Compound 7, (3S,5S,8R,9S,10S,13S,14S,17R)-3-ethyl-17-((1R,2S)-1-hydroxy-1-(pyridin-3-yl)propan-2-yl)-10,13-dimethylhexadecahydro-1H-cyclopenta[a]phenanthren-3-ol]",-10 to 10,
"COC[C@]1(O)CC[C@@]2(C)[C@H](CC[C@@H]3[C@@H]2CC[C@]2(C)[C@@H]([C@H](C)[C@@H](O)C(F)(F)F)CC[C@@H]32)C1 [Compound 9, (3S,5R,8R,9S,10S,13S,14S,17R)-3-(methoxymethyl)-10,13-dimethyl-17-((2S,3R)-4,4,4-trifluoro-3-hydroxybutan-2-yl)hexadecahydro-1H-cyclopenta[a]phenanthren-3-ol]",-40 to -10,
"CC[C@]1(O)CC[C@@]2(C)[C@@H](CC[C@@H]3[C@@H]2CC[C@]2(C)[C@@H]([C@H](C)[C@@H](O)C4CC4)CC[C@@H]32)C1 [Compound 10, (3S,5S,8R,9S,10S,13S,14S,17R)-17-((1S,2S)-1-cyclopropyl-1-hydroxypropan-2-yl)-3-ethyl-10,13-dimethylhexadecahydro-1H-cyclopenta[a]phenanthren-3-ol]",< -40,
"CC[C@]1(O)CC[C@@]2(C)[C@@H](CC[C@@H]3[C@@H]2CC[C@]2(C)[C@@H]([C@H](C)[C@H](O)C(F)(F)F)CC[C@@H]32)C1 [Compound 11, (3S,5S,8R,9S,10S,13S,14S,17R)-3-ethyl-10,13-dimethyl-17-((2S,3S)-4,4,4-trifluoro-3-hydroxybutan-2-yl)hexadecahydro-1H-cyclopenta[a]phenanthren-3-ol]",< -40,
"CC[C@]1(O)CC[C@@]2(C)[C@H](CC[C@@H]3[C@@H]2CC[C@]2(C)[C@@H]([C@H](C)[C@H](O)CCC(C)(C)C)CC[C@@H]32)C1 [Compound 15, (3S,5R,8R,9S,10S,13S,14S,17R)-3-ethyl-17-((2S,3R)-3-hydroxy-6,6-dimethylheptan-2-yl)-10,13-dimethylhexadecahydro-1H-cyclopenta[a]phenanthren-3-ol]",-40 to -10,
"CC[C@]1(O)CC[C@@]2(C)[C@@H](CC[C@@H]3[C@@H]2CC[C@]2(C)[C@@H]([C@H](C)[C@@H](O)C(F)(F)F)CC[C@@H]32)C1 [Compound 16, (3S,5S,8R,9S,10S,13S,14S,17R)-3-ethyl-10,13-dimethyl-17-((2S,3R)-4,4,4-trifluoro-3-hydroxybutan-2-yl)hexadecahydro-1H-cyclopenta[a]phenanthren-3-ol]",-40 to -10,
"CC[C@]1(O)CC[C@@]2(C)[C@@H](CC[C@@H]3[C@@H]2CC[C@]2(C)[C@@H]([C@H](C)[C@H](O)CC4CCOCC4)CC[C@@H]32)C1 [Compound 18, (3S,5S,8R,9S,10S,13S,14S,17R)-3-ethyl-17-((2S,3R)-3-hydroxy-4-(tetrahydro-2H-pyran-4-yl)butan-2-yl)-10,13-dimethylhexadecahydro-1H-cyclopenta[a]phenanthren-3-ol]",-10 to 10,
"CC[C@]1(O)CC[C@@]2(C)[C@@H](CC[C@@H]3[C@@H]2CC[C@]2(C)[C@@H]([C@H](C)[C@H](O)c4ccccc4)CC[C@@H]32)C1 [Compound 19, (3S,5S,8R,9S,10S,13S,14S,17R)-3-ethyl-17-((1S,2S)-1-hydroxy-1-phenylpropan-2-yl)-10,13-dimethylhexadecahydro-1H-cyclopenta[a]phenanthren-3-ol]",-40 to -10,
"C[C@@H]([C@H]1CC[C@H]2[C@@H]3CC[C@H]4C[C@](O)(C(F)(F)F)CC[C@]4(C)[C@H]3CC[C@]12C)[C@@H](O)C[C@@H](O)c1ccccc1 [Compound 79, (1R,3S,4S)-4-((3S,5S,8R,9S,10S,13S,14S,17R)-3-hydroxy-10,13-dimethyl-3-(trifluoromethyl)hexadecahydro-1H-cyclopenta[a]phenanthren-17-yl)-1-phenylpentane-1,3-diol]",,"EC50 [2]: > 1000 nM; Emax [2]: < 100%; EC50 ([3]; peak current amplitude, co-application with EC20 L-glutamate and 30 μM glycine, HEK293, read-out: GluN2A PCA EC50): > 1000 nM; Emax [3, 4]: < 100%"
"CC[C@]1(O)CC[C@H]2[C@H](CC[C@@H]3[C@@H]2CC[C@]2(C)[C@@H]([C@H](C)[C@@H](O)CCC(C)C)CC[C@@H]32)C1 [Compound 82, (3S,5R,8R,9R,10S,13S,14S,17R)-3-ethyl-17-((2S,3S)-3-hydroxy-6-methylheptan-2-yl)-13-methylhexadecahydro-1H-cyclopenta[a]phenanthren-3-ol]",,"EC50 ([2]; peak current amplitude, co-application with EC20 L-glutamate and 30 μM glycine, read-out: GluN2B PCA EC50): > 1000 nM; Emax ([2]; peak current amplitude, co-application with EC20 L-glutamate and 30 μM glycine): < 100%; EC50 [3]: > 1000 nM; Emax [3, 4]: < 100%"
